{
  "source": "paper PMC12030497",
  "about": "“Plasma Protein Binding, Biostability, Metabolite Profiling, and CYP450 Phenotype of TPB15 Across Different Species: A Novel Smoothened Inhibitor for TNBC Therapy” (Pharmaceutics, 2025)",
  "key": {"CYP2A6": {"molecular_target": "T1, CYP2A6 (Homo sapiens, UniProt P11509)", "T1 construct": "tissue Jiangsu Kejing Bio-Pharmaceutical Co., Ltd; host or cells: human liver microsomes", "T1 sequence (P11509 1-494)": "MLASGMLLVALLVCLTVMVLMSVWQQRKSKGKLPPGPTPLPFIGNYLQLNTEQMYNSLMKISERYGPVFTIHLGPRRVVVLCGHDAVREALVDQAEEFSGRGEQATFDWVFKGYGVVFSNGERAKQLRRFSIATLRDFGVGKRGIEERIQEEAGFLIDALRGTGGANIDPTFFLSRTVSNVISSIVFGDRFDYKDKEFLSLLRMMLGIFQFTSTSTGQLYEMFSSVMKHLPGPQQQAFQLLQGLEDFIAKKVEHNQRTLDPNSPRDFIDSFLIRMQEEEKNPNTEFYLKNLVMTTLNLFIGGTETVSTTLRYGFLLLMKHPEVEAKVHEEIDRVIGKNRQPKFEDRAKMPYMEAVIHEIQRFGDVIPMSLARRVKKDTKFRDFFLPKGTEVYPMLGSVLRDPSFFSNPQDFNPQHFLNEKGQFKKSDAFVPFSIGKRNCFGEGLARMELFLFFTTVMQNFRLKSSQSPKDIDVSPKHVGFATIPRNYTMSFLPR", "test": "TPB15 metabolism in human liver microsomes with CYP2A6 inhibitor", "assay_type": "in vitro ADME", "details": "inhibition of TPB15 metabolism, HLM, 90 min, Coumarin 25 μM (CYP2A6)", "procedure": "(§1) The specific inhibitors of P450 were employed to evaluate the metabolic phenotype of TPB15, and the metabolic enzymes corresponding to each inhibitor and the system concentration are shown in Table 2. The specific procedure was as follows: a total of 0.5 μL of the substrate TPB15 and 0.5 μL of each specific inhibitor were mixed with 449 μL of human liver microsomes, and the mixture was incubated at 37 °C for 10 min. Subsequently, 50 μL of NADPH with a concentration of 10 mM in PBS were introduced to initiate the reaction. After 90 min, 50 μL of the reaction mixture were transferred to a 150 μL ice-cold methanol solution containing an internal standard to terminate the reaction. The mixture was vortexed for 2 min and then centrifuged at 4 °C at 14,800 rpm for 10 min. A volume of 130 μL of the supernatant was then transferred to a new EP tube, which was centrifuged again at 4 °C at 14,800 rpm for another 10 min. Finally, 5 μL of the supernatant were injected for the determination of substrate TPB15 concentration. Three parallel samples were prepared for each time point. The experiment also included a positive control group and a negative control group. In the positive control group, substrate TPB15 was incubated with human liver microsomes for 90 min without the addition of inhibitors."}, "CYP2C8": {"molecular_target": "T2, CYP2C8 (Homo sapiens, UniProt P10632)", "T2 construct": "tissue Jiangsu Kejing Bio-Pharmaceutical Co., Ltd; host or cells: human liver microsomes", "T2 sequence (P10632 1-490)": "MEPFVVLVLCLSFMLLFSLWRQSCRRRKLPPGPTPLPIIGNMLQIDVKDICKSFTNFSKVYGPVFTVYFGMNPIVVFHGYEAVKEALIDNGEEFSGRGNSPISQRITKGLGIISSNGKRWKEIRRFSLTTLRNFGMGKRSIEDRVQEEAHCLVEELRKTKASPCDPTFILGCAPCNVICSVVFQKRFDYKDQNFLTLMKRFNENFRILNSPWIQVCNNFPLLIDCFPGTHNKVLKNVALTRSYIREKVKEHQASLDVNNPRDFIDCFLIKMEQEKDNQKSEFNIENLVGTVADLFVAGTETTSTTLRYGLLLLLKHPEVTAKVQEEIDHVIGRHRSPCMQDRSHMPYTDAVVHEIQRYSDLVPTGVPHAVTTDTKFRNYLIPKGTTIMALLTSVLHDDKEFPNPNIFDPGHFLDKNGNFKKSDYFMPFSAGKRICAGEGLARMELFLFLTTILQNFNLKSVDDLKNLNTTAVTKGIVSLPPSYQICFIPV", "test": "TPB15 metabolism in human liver microsomes with CYP2C8 inhibitor", "assay_type": "in vitro ADME", "details": "inhibition of TPB15 metabolism, HLM, 90 min, Quercetin 20 μM (CYP2C8)", "procedure": "Three parallel samples were prepared for each time point."}, "CYP2C9": {"molecular_target": "CYP2C9 (Homo sapiens, UniProt P11712)", "sequence (P11712 whole entry)": "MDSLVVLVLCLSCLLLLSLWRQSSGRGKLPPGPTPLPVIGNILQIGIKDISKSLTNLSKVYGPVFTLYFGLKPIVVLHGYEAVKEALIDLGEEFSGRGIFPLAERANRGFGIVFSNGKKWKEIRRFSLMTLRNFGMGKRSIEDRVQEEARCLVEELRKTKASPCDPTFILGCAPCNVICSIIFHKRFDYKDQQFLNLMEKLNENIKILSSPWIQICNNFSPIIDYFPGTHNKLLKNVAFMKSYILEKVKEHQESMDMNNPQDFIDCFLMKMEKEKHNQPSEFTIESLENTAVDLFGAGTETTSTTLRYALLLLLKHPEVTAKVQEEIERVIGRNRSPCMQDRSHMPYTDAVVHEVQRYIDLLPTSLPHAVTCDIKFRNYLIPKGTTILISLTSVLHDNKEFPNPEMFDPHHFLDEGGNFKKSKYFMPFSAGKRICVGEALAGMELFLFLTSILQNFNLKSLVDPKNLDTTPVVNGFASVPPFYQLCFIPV", "details": "inhibition of TPB15 metabolism, HLM, 90 min, Sulfaphenazole 20 μM (CYP2C9)", "procedure": "as §1"}, "[1]": {"tested_on": "CYP450 enzymes in human liver microsomes", "test": "Metabolic enzyme phenotype of TPB15 in human liver microsomes with selective CYP450 inhibitors", "assay_type": "in vitro ADME", "details": "90 min", "experimental": "The specific procedure was as follows: a total of 0.5 μL of the substrate TPB15 and 0.5 μL of each specific inhibitor were mixed with 449 μL of human liver microsomes, and the mixture was incubated at 37 °C for 10 min. Subsequently, 50 μL of NADPH with a concentration of 10 mM in PBS were introduced to initiate the reaction. After 90 min, 50 μL of the reaction mixture were transferred to a 150 μL ice-cold methanol solution containing an internal standard to terminate the reaction. The mixture was vortexed for 2 min and then centrifuged at 4 °C at 14,800 rpm for 10 min. A volume of 130 μL of the supernatant was then transferred to a new EP tube, which was centrifuged again at 4 °C at 14,800 rpm for another 10 min. Finally, 5 μL of the supernatant were injected for the determination of substrate TPB15 concentration. Three parallel samples were prepared for each time point. The experiment also included a positive control group and a negative control group. In the positive control group, substrate TPB15 was incubated with human liver microsomes for 90 min without the addition of inhibitors. In the negative control group, the substrate TPB15 was incubated for 90 min without inhibitors, with human liver microsomes replaced by an equal volume of phosphate-buffered saline (PBS). The metabolic rate of TPB15 in human liver microsomes was represented by the elimination rate of the substrate TPB15."}, "[2]": {"test": "Metabolic stability in dog liver microsomes (DLM)", "assay_type": "in vitro ADME, beagle dog", "details": "DLM; for Concentration (ng/mL) of testosterone, Mean: positive control substrate", "procedure": "(§2) A total of 450 μL liver microsomes from mice, rat, dog, monkey, and human were spiked with 0.5 μL of TPB15 solution and pre-incubated in a water bath at 37 °C for 10 min. Following this, 50 μL of NADPH were added to initiate the reaction. The concentrations of each substance in the incubation system are detailed in Table 1. After initiating the metabolic reaction, 50 μL aliquots were removed at incubation times of 0, 5, 15, 30, 45, 60, and 90 min and transferred to 150 μL of icy methanol solution containing the internal standard to terminate the reaction. The mixtures were swirled for 2 min and then centrifuged at 14,800 rpm at 4 °C for 10 min. […] Three samples were prepared in parallel at each time point. Additionally, both a positive control group and a blank control group were established. In the positive control group, substrate testosterone was incubated with liver microsomes from mice, rat, dog, monkey, and human. The concentrations of substrate testosterone were measured at 0 and 90 min, and the changes in concentration before and after incubation were compared to confirm the activity of the liver microsomes. The blank control group included one drug-containing inactivated liver microsome sample for each species. The metabolic stability parameters, including in vitro elimination half-life (T1/2) and in vitro intrinsic clearance rate (CLint), were calculated based on this graph using the following formulas: in vitro elimination half-life (T1/2) = −0.693/k and in vitro intrinsic clearance rate (CLint) = (0.693 × incubation medium (mL))/(liver microsomes (mg) × T1/2)."}, "[3]": {"test": "Metabolic stability in monkey liver microsomes (MLM)", "assay_type": "in vitro ADME, crab-eating monkey", "details": "MLM; for Concentration (ng/mL) of testosterone, Mean: positive control substrate", "procedure": "as §2"}, "[4]": {"test": "Metabolic stability in human liver microsomes (HLM)", "assay_type": "in vitro ADME", "details": "HLM; for Concentration (ng/mL) of testosterone, Mean: positive control substrate", "procedure": "as §2"}, "[5]": {"test": "Metabolic stability in rat liver microsomes (RLM)", "assay_type": "in vitro ADME, Sprague-Dawley rat", "details": "RLM; for Concentration (ng/mL) of testosterone, Mean: positive control substrate", "procedure": "as §2"}, "[6]": {"test": "Metabolic stability in mouse liver microsomes (MouLM)", "assay_type": "in vitro ADME, KM mice", "details": "MouLM, 0 min", "procedure": "as §2"}},
  "note": "Several values for one entry are separate records, joined by “and”; a condition that tells them apart may be missing. Equal values may be shown once.",
  "data": [
    {"smiles": "O=c1ccc2ccccc2o1", "note": "[Coumarin]", "values": [
      {"measurement": "Inhibitor Rate (%)", "setting": "CYP2A6", "result": 6.60, "unit": "%"}
    ]},
    {"smiles": "O=c1c(O)c(-c2ccc(O)c(O)c2)oc2cc(O)cc(O)c12", "note": "[Quercetin]", "values": [
      {"measurement": "Inhibitor Rate (%)", "setting": "CYP2C8", "result": 8.63, "unit": "%"}
    ]},
    {"smiles": "Nc1ccc(S(=O)(=O)Nc2ccnn2-c2ccccc2)cc1", "note": "[Sulfaphenazole, reference compound]", "values": [
      {"measurement": "Inhibitor Rate (%)", "setting": "CYP2C9", "result": 81.22, "unit": "%"},
      {"measurement": "effect of selective CYP450 inhibitor on TPB15 metabolism (significance vs positive control group)", "setting": "[1]", "result": "significantly inhibited"}
    ]},
    {"smiles": "C[C@]12CC[C@H]3[C@@H](CCC4=CC(=O)CC[C@@]43C)[C@@H]1CC[C@@H]2O", "note": "[testosterone]", "values": [
      {"measurement": "Concentration (ng/mL) of testosterone, single samples (serial number 1-3)", "setting": "[2]; 0 min", "result": "300 ng/mL and 364 ng/mL and 375 ng/mL"},
      {"measurement": "Concentration (ng/mL) of testosterone, Mean", "setting": "[2]; 0 min", "result": 346.3, "unit": "ng/mL"},
      {"measurement": "Concentration (ng/mL) of testosterone, Mean", "setting": "[2]; 90 min", "result": 17.5, "unit": "ng/mL"},
      {"measurement": "Concentration (ng/mL) of testosterone, single samples (serial number 1-3)", "setting": "[3]; 0 min", "result": "293 ng/mL and 385 ng/mL and 301 ng/mL"},
      {"measurement": "Concentration (ng/mL) of testosterone, Mean", "setting": "[3]; 0 min", "result": 326.4, "unit": "ng/mL"},
      {"measurement": "Concentration (ng/mL) of testosterone, single samples (serial number 1-3)", "setting": "[3]; 90 min", "result": "29.2 ng/mL and 39.7 ng/mL and 38.2 ng/mL"},
      {"measurement": "Concentration (ng/mL) of testosterone, Mean", "setting": "[3]; 90 min", "result": 35.7, "unit": "ng/mL"},
      {"measurement": "Concentration (ng/mL) of testosterone, single samples (serial number 1-3)", "setting": "[4]; 0 min", "result": "273 ng/mL and 379 ng/mL and 308 ng/mL"},
      {"measurement": "Concentration (ng/mL) of testosterone, Mean", "setting": "[4]; 0 min", "result": 320.0, "unit": "ng/mL"},
      {"measurement": "Concentration (ng/mL) of testosterone, single samples (serial number 1-3)", "setting": "[4]; 90 min", "result": "19.2 ng/mL and 22.9 ng/mL and 34.7 ng/mL"},
      {"measurement": "Concentration (ng/mL) of testosterone, Mean", "setting": "[4]; 90 min", "result": 25.6, "unit": "ng/mL"},
      {"measurement": "Concentration (ng/mL) of testosterone, single samples (serial number 1-3)", "setting": "[5]; 0 min", "result": "331 ng/mL and 303 ng/mL"},
      {"measurement": "Concentration (ng/mL) of testosterone, Mean", "setting": "[5]; 0 min", "result": 321.7, "unit": "ng/mL"},
      {"measurement": "Concentration (ng/mL) of testosterone, Mean", "setting": "[5]; 90 min", "result": 22.6, "unit": "ng/mL"},
      {"measurement": "Concentration (ng/mL) of testosterone, single samples (serial number 1-3)", "setting": "[6]", "result": "400 ng/mL and 314 ng/mL and 356 ng/mL"},
      {"measurement": "Concentration (ng/mL) of testosterone, Mean", "setting": "[6]; positive control substrate", "result": 356.7, "unit": "ng/mL"}
    ]}
  ]
}
